These compounds were tested on thrombocyte aggregation (assay: Born test: inhibition of the second phase of adrenalin induced thrombocyte aggregation in platelet-rich plasma (PRP)). Details: Homo sapiens, at 5 × 10^-5 m, induced by 5×10^-6 m adrenalin, read-out: Percent Inhibition Of Thrombocyte Aggregation.
Assay type: cell-based, human
Source text: In a series of determinations utilizing the Born test, venous blood from metabolically healthy persons was mixed with sodium citrate in a ratio of 9:1 and the erythrocytes precipitated by centrifuging at 150 g. The filtrate is enriched in thrombocytes and this filtrate is designated as platelet-rich plasma (PRP). One aliquot of the PRP is placed in the cuvette of an aggregometer (Universal Aggregometer, manufactured by Braun Melsungen, West Germany) and stirred with a magnetic stirrer. The substance to be tested is added in the form of an aqueous solution at a pH of about 7. Changes in the light transmission of the suspension are continuously recorded. After spontaneous aggregation ceases, further aggregation is induced by the addition of 5×10^-6 m adrenalin, forming larger thrombocyte aggregates and increasing the light transmission through the suspension.
The adrenalin induced aggregation takes place in two phases, i.e., the light transmission initially increases, then stagnates temporarily, and then increases again. Only the second phase of the aggregation can be influenced by aggregation inhibitors. For an evaluation of the results there is first established, in a control experiment using no test compound, the angle of the second aggregation phase against the horizontal for adrenalin induced aggregation and this is designated as 0% inhibition. Utilizing the same PRP, the test compound is added and aggregation is induced with adrenalin, and the course of aggregation continuously recorded. The angle of the second aggregation phase against the horizontal is again determined and the relationship of this angle against the angle determined in the control experiment yields the percent inhibition of the second phase of the thrombocyte aggregation.
The standard material "Colfarit" (acetylsalicylic acid) yields 100% inhibition at a concentration of 10^-4 m and 0% inhibition at a concentration of 5×10^-5 m. At the latter concentration the inventive compounds yielded the following results: […]

Structure (SMILES)	inhibition at 50 µM
CC(C)(Oc1ccc(CCNS(=O)(=O)c2ccc(Cl)cc2)cc1)C(=O)O [2-{4-[2-(4-Chlorobenzenesulphonylamino)-ethyl]-phenoxy}-2-methylpropionic acid]	100%
CC(C)(Oc1ccc(CCNS(=O)(=O)c2ccccc2)cc1)C(=O)O [2-{4-[2-(Benzenesulphonylamino)-ethyl]-phenoxy}-2-methylpropionic acid]	20%
O=C(O)COc1ccc(CNS(=O)(=O)c2ccccc2)cc1 [4-(Benzenesulphonylaminomethyl)-phenoxyacetic acid]	20%
O=C(O)COc1ccc(CCNS(=O)(=O)c2cccc3ccccc23)cc1 [4-[2-(1-naphthalenesulphonylamino)-ethyl]-phenoxyacetic acid]	100%
O=C(O)COc1ccc(CCNS(=O)(=O)c2ccc(F)cc2)cc1 [4-[2-(4-Fluorobenzenesulphonylamino)-ethyl]-phenoxyacetic acid]	100%
CC(=O)c1ccc(S(=O)(=O)NCCc2ccc(OCC(=O)O)cc2)cc1 [4-[2-(4-acetylbenzenesulphonylamino)-ethyl]-phenoxyacetic acid]	100%
O=C(O)COc1ccc(CCNS(=O)(=O)c2ccc(Cl)cc2)cc1 [4-[2-(4-chlorobenzenesulphonylamino)-ethyl]-phenoxyacetic acid]	100%
CC(CO)NC(=O)COc1ccc(CCNS(=O)(=O)c2ccccc2)cc1 (stereo not drawn) [4-[2-(Benzenesulphonylamino)-ethyl]-phenoxyacetic acid 1-hydroxy-2-propylamide]	10%
CCOC(=O)CCNC(=O)COc1ccc(CCNS(=O)(=O)c2ccccc2)cc1 [4-[2-(Benzenesulphonylamino)-ethyl]-phenoxyacetic acid 2-ethoxycarbonylethylamide]	100%
O=C(O)COc1ccc(CCNS(=O)(=O)c2ccccc2)cc1 [4-[2-(Benzenesulphonylamino)-ethyl]-phenoxyacetic acid]	100%
Cc1ccc(S(=O)(=O)NCCc2ccc(OCC(=O)O)cc2)cc1 [4-[2-(p-toluenesulphonylamino)-ethyl]-phenoxyacetic acid]	100%
O=C(O)COc1ccc(CCCNS(=O)(=O)c2ccccc2)cc1 [4-[3-(Benzenesulphonylamino)-propyl]-phenoxyacetic acid]	100%
CC(=O)Oc1ccccc1C(=O)O [Colfarit, acetylsalicylic acid, reference compound]	0%
CC(C)OC(=O)COc1ccc(CCNS(=O)(=O)c2ccccc2)cc1 [Isopropyl 4-[2-(benzenesulphonylamino)-ethyl]-phenoxyacetate]	100%

Same assay, conditions: at 10^-4 m, induced by adrenalin

Structure (SMILES)	inhibition of thrombocyte aggregation
CC(=O)Oc1ccccc1C(=O)O [Colfarit, acetylsalicylic acid, reference compound]	100%
